Assay results from US10093656B2, “Fused-ring or tricyclic aryl pyrimidine compound used as kinase inhibitor” (NANJING SANHOME PHARMACEUTICAL CO., LTD, priority 2015, dated 2018).

How the values were obtained:
A431 cells EGFR WT = test: A431 cell viability assay (Cell Titer-Glo, 6 days); assay type: cell-based, human; details: for IC50: Homo sapiens, A-431, 144 h, A431 cells, 6 days; for A431:NCI-H1975 (ratio): ratio of cell IC50 A431 to NCI-H1975
Procedure: (§1) RPMI1640, fetal bovine serum, penicillin/streptomycin solution were purchased from Life Technology (Madison, Wis.). Cell Titer-Glo luminescent cell viability reagents were purchased from Promega (Madison, Wis.). A431 cell line and NCI-H1975 cell line were purchased from European Collection of Cell Cultures (ECACC). Plate Reader Instrument: Envision (PerkinElmer).
(§2) 384-Well plates, 300 of A431 cells and NCI-H1975 cells were inoculated per well, a volume of which was 45 μL. And the plates were incubated overnight in a CO2 incubator at 37° C. The test compound was diluted 3-fold to obtain 10 dose concentrations, the final concentrations of which were from 10 μM to 0.508 nM, two wells. The middle plates were filled with 49 μL of medium per well. 1 μL of compound in the gradient dilution compound plates was transferred to the middle plates and mixed well. And then 5 μL liquid in the middle plates was taken to the cell plates. The cells were incubated in a CO2 incubator for 6 days. After 6 days, 25 μL of detection reagents was added. And then the mixture was incubated at room temperature for 10 minutes and the plates were read by Envision.
(§3) The reading is converted to the suppression rate by the following formula (%) (Max-Sample)/(Max-Min)*100%. IC50 Data was measured by Four-parameter curve fitting (Model 205 in XLFIT5, IDBS).

[1] = system: NCI-H1975 cells EGFR L858R/T790M; test: NCI-H1975 cell viability assay (Cell Titer-Glo, 6 days); assay type: cell-based; details: Homo sapiens, 144 h
Procedure: as §1, §2, §3

EGFR wild type = biological target: T1, EGFR wild type (Homo sapiens, UniProt P00533); test: Wild-type EGFR enzyme HTRF inhibition assay; assay type: biochemical; details: 25 μM ATP, read-out: EGFR WT IC50
T1 construct: purchased Life technology (Madison, Wis.)
Procedure: (§4) Enzyme: EGFR wild type, EGFR T790M/L858R, EGFR T790M and INSR were purchased from Life technology (Madison, Wis.), EGFR d746-750/T790M was purchased from Carna Biosciences (Japan).
(§5) HTRF Kit was purchased from Cis-Bio International which contained the Eu-labeled TK1 antibody, XL665 and biotin-labeled TK1 polypeptide substrates.
(§6) Detecting instrument: Envision (PerkinElmer).
(§7) The test compound was diluted 3-fold to obtain 10 doses of which the final concentration was from 300 nM to 0.015 nM.
Wild-Type EGFR Enzyme Reaction Mixture System:
0.05 nM Wild-type EGFR, 1 μM biotin-TK1 peptide, 25 μM ATP enzyme buffer, a total of which was 10 μL. The reaction plate was white Proxiplate 384-Plus plate (PerkinElmer) and the mixture was reacted at 23° C. for 60 minutes.
(§8) Reaction Detection: 10 μL of detection reagent containing Antibody 2 nM and XL665 62.5 nM was added, and the reagent was incubated at 23° C. for 60 minutes. The plates were read by Envision.
(§9) The reading is converted to the suppression rate (%) by the following formula […]/(Max-Min)*100%. IC50 Data was measured by four-parameter curve fitting (Model 205 in XLFITS, IDBS).

EGFR d746-750/T790M = biological target: T2, EGFR d746-750/T790M (Homo sapiens, UniProt P00533, DEL746-750/T790M); test: EGFR d746-750/T790M enzyme HTRF inhibition assay; assay type: biochemical; details: 40 μM ATP
T2 construct: purchased Carna Biosciences (Japan)
Procedure: as §4, §5, §6, §7
EGFR d746-750/T790M Enzyme Reaction Mixture System:
0.025 nM EGFR d746-750/T790M, 1 μM biotin-TK1 peptide, 40 μM ATP enzyme buffer, a total of which was 10 μL. The reaction plate was white Proxiplate 384-Plus plate (PerkinElmer) and the mixture was reacted at 23° C. for 60 minutes.
as §8, §9

EGFR T790M/L858R = biological target: T3, EGFR T790M/L858R (Homo sapiens, UniProt P00533, L858R/T790M); test: EGFR T790M/L858R enzyme HTRF inhibition assay; assay type: biochemical; details: 20 μM ATP, read-out: EGFR L858R/T79M IC50
T3 construct: purchased Life technology (Madison, Wis.)
Procedure: as §4, §5, §6, §7
EGFR T790M/L858R Enzyme Reaction Mixture System:
0.04 nM EGFR T790M/L858R, 1 μM biotin-TK1 peptide, 20 μM ATP enzyme buffer, a total of which was 10 μL. The reaction plate was white Proxiplate 384-Plus plate (PerkinElmer) and the mixture was reacted at 23° C. for 60 minutes.
as §8, §9

T3 sequence (P00533 25-1210 T790M/L858R): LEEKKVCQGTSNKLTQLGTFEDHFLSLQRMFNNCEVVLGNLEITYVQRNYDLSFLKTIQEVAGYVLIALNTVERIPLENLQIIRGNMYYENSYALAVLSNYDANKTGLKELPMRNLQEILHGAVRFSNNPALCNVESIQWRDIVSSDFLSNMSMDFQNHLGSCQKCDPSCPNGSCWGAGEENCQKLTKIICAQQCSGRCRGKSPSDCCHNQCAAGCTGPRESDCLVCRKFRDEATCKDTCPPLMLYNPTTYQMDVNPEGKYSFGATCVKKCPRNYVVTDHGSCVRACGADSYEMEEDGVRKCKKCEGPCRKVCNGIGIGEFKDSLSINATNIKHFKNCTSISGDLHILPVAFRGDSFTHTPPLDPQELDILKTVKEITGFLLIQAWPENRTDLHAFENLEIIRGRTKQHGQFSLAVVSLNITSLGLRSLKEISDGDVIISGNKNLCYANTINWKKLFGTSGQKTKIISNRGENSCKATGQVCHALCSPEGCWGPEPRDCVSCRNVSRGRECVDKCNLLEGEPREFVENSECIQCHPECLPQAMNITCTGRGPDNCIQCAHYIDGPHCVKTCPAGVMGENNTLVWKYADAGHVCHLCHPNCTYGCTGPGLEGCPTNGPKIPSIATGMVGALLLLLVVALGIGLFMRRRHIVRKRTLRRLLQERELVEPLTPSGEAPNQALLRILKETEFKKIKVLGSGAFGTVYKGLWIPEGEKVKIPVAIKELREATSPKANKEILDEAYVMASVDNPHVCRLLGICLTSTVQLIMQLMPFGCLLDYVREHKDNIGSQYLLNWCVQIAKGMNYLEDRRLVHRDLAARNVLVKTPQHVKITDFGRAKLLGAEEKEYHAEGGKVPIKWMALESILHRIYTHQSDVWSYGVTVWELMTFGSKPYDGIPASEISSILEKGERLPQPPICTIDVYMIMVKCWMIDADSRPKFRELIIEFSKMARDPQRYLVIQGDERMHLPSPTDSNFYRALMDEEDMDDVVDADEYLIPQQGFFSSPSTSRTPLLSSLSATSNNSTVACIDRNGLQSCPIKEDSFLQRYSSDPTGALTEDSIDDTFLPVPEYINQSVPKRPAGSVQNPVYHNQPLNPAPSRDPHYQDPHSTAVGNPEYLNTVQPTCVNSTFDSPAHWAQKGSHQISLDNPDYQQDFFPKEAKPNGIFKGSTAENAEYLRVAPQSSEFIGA
T2 sequence (P00533 with tags, fused parts or gaps DEL746-750/T790M limits assumed): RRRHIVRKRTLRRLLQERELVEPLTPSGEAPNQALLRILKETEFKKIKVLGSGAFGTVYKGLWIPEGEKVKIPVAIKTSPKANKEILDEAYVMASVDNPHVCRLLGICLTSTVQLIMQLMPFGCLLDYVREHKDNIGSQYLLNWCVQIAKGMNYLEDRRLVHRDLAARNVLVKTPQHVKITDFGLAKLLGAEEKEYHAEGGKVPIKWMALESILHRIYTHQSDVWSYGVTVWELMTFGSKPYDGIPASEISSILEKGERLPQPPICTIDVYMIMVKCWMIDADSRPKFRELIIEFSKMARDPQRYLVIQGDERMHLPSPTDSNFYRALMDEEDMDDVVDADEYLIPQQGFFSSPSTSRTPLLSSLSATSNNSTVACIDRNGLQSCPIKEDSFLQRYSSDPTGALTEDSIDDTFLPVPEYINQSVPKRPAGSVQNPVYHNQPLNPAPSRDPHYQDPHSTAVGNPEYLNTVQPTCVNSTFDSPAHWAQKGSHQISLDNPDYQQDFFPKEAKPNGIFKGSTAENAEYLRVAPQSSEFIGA
T1 sequence (P00533 25-1210): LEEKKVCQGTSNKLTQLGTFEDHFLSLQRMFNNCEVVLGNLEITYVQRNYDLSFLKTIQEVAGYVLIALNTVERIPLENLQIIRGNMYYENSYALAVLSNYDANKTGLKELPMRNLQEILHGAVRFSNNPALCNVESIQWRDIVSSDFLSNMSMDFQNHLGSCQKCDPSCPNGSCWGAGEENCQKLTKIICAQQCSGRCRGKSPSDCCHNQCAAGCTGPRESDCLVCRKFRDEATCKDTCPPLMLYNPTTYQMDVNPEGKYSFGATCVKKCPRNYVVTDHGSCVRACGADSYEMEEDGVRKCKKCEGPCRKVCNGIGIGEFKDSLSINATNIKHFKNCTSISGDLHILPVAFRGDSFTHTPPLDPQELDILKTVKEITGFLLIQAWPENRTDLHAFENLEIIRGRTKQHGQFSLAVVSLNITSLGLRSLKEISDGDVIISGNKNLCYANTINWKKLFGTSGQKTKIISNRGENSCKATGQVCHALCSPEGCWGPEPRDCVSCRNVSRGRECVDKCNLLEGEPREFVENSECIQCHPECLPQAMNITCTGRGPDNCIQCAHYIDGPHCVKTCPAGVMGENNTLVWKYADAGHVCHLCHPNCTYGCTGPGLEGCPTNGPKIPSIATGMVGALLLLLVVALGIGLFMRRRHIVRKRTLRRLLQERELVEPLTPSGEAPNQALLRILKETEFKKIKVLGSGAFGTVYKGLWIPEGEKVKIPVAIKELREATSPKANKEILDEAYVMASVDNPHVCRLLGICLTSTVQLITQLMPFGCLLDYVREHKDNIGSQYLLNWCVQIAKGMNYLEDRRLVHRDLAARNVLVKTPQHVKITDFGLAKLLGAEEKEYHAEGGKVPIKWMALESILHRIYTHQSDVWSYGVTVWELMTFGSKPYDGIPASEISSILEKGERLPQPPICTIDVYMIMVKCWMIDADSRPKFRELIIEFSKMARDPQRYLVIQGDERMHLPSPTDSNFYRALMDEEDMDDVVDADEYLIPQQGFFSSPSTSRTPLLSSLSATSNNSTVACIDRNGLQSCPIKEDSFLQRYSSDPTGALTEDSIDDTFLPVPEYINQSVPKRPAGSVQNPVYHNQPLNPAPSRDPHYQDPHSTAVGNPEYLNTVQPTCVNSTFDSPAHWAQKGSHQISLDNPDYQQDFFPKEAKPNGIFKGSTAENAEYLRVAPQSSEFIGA

For `C=CC(=O)Nc1cc(Nc2nccc(-c3c4n(c5ccccc35)CCCC4)n2)c(OC)cc1N(C)CCN(C)C` [Embodiment 15, N-(2-((2-(Dimethylamino)ethyl)(methyl)amino)-4-methoxy-5-((4-(6,7,8,9-tetrahydropyrido[1,2-a]indol-10-yl)pyrimidin-2-yl)amino)phenyl)acrylamide], the IC50 (A431 cells EGFR WT) was 230 nM, the “A431:NCI-H1975 (ratio)” value (A431 cells EGFR WT) was 15.3 and the IC50 [1] was 15 nM. For the same molecule, the IC50 (EGFR wild type) was 1.03 nM, the IC50 (EGFR d746-750/T790M) was 0.37 nM and the IC50 (EGFR T790M/L858R) was 0.36 nM.
`C=CC(=O)Nc1cc(Nc2nccc(-c3c4n(c5ccccc35)CCOC4)n2)c(OC)cc1N(C)CCN(CC)CC` [Embodiment 16, N-(2-((2-(Diethylamino)ethyl)(methyl)amino)-5-((4-(3,4-dihydro-1H-[1,4]oxazino[4,3-a]indol-10-yl)pyrimidin-2-yl)amino)-4-methoxyphenyl)acrylamide] was tested, and the IC50 (A431 cells EGFR WT) was 1060 nM, the “A431:NCI-H1975 (ratio)” value (A431 cells EGFR WT) was 63 and the IC50 [1] was 17 nM. For the same molecule, the IC50 (EGFR wild type) was 4 nM, the IC50 (EGFR d746-750/T790M) was 0.33 nM and the IC50 (EGFR T790M/L858R) was 0.29 nM.
`C=CC(=O)Nc1cc(Nc2nccc(-c3c4n(c5ccccc35)CCOC4)n2)c(OC)cc1N(CC)CCN(C)C` [Embodiment 19, N-(5-((4-(3,4-Dihydro-1H-[1,4]oxazino[4,3-a]indol-10-yl)pyrimidin-2-yl)amino)-2-((2-(dimethylamino)ethyl)(ethyl)amino)-4-methoxyphenyl)acrylamide] was tested, and the IC50 (A431 cells EGFR WT) was 965 nM, the “A431:NCI-H1975 (ratio)” value (A431 cells EGFR WT) was 33 and the IC50 [1] was 29 nM. It also gave an IC50 (EGFR wild type) of 2.7 nM, an IC50 (EGFR d746-750/T790M) of 0.26 nM and an IC50 (EGFR T790M/L858R) of 0.3 nM.
For `C=CC(=O)Nc1cc(Nc2nccc(-c3c4n(c5ccccc35)CCOC4)n2)c(OC)cc1N(C)C(C)CN(C)C` (stereo not drawn) [Embodiment 20, N-(5-((4-(3,4-Dihydro-1H-[1,4]oxazino[4,3-a]indol-10-yl)pyrimidin-2-yl)amino)-2-((1-(dimethylamino)propan-2-yl)(methyl)amino)-4-methoxyphenyl)acrylamide], the IC50 (A431 cells EGFR WT) was 164 nM, the “A431:NCI-H1975 (ratio)” value (A431 cells EGFR WT) was 41.0 and the IC50 [1] was 4 nM. The IC50 (EGFR wild type) was 0.66 nM, the IC50 (EGFR d746-750/T790M) was 0.17 nM and the IC50 (EGFR T790M/L858R) was 0.2 nM.
For `C=CC(=O)Nc1cc(Nc2nccc(-c3c4n(c5ccccc35)CCOC4)n2)c(OC)cc1N(C)CCNC(C)(C)C` [Embodiment 24, N-(2-((2-(tert-Butylamino)ethyl)(methyl)amino)-5-((4-(3,4-dihydro-1H-[1,4]oxazino[4,3-a]indol-10-yl)pyrimidin-2-yl)amino)-4-methoxyphenyl)acrylamide], the IC50 (A431 cells EGFR WT) was 2660 nM, the “A431:NCI-H1975 (ratio)” value (A431 cells EGFR WT) was 15 and the IC50 [1] was 172 nM. For the same molecule, the IC50 (EGFR wild type) was 36.4 nM, the IC50 (EGFR d746-750/T790M) was 1.3 nM and the IC50 (EGFR T790M/L858R) was 1.9 nM.
With `C=CC(=O)Nc1cc(Nc2nccc(-c3c4n(c5ccccc35)CCOC4)n2)c(OCC)cc1N(C)CCN(C)C` [Embodiment 28, N-(5-((4-(3,4-Dihydro-1H-[1,4]oxazino[4,3-a]indol-10-yl)pyrimidin-2-yl)amino)-2-((2-(dimethylamino)ethyl)(methyl)amino)-4-ethoxyphenyl)acrylamide] the IC50 (A431 cells EGFR WT) was 517 nM, the “A431:NCI-H1975 (ratio)” value (A431 cells EGFR WT) was 47 and the IC50 [1] was 11 nM. For the same molecule, the IC50 (EGFR wild type) was 1.5 nM, the IC50 (EGFR d746-750/T790M) was 0.2 nM and the IC50 (EGFR T790M/L858R) was 0.2 nM.
With `C=CC(=O)Nc1cc(Nc2nccc(-c3c4n(c5ccccc35)CCOC4)n2)c(OC(C)C)cc1N(C)CCN(C)C` [Embodiment 29, N-(5-((4-(3,4-Dihydro-1H-[1,4]oxazino[4,3-a]indol-10-yl)pyrimidin-2-yl)amino)-2-((2-(dimethylamino)ethyl)(methyl)amino)-4-isopropoxyphenyl)acrylamide] the IC50 (A431 cells EGFR WT) was 1180 nM, the “A431:NCI-H1975 (ratio)” value (A431 cells EGFR WT) was 47 and the IC50 [1] was 25 nM. The IC50 (EGFR wild type) was 5.1 nM, the IC50 (EGFR d746-750/T790M) was 0.38 nM and the IC50 (EGFR T790M/L858R) was 0.38 nM.
With `C=CC(=O)Nc1cc(Nc2ncc(F)c(-c3c4n(c5ccccc35)CCOC4)n2)c(OC)cc1N(C)CCNC` [Embodiment 31, N-(5-((4-(3,4-Dihydro-1H-[1,4]oxazino[4,3-a]indol-10-yl)-5-fluoropyrimidin-2-yl)amino)-4-methoxy-2-(methyl(2-(methylamino)ethyl)amino)phenyl)acrylamide] the IC50 (A431 cells EGFR WT) was 1290 nM, the “A431:NCI-H1975 (ratio)” value (A431 cells EGFR WT) was 13.4 and the IC50 [1] was 96 nM. It also gave an IC50 (EGFR wild type) of 2 nM, an IC50 (EGFR d746-750/T790M) of 0.3 nM and an IC50 (EGFR T790M/L858R) of 0.2 nM.
`C=CC(=O)Nc1cc(Nc2ncc(F)c(-c3c4n(c5ccccc35)CCOC4)n2)c(OC)cc1N(C)CC(C)(C)N(C)C` [Embodiment 32, N-(5-((4-(3,4-Dihydro-1H-[1,4]oxazino[4,3-a]indol-10-yl)-5-fluoropyrimidin-2-yl)amino)-2-((2-(dimethylamino)-2-methylpropyl)(methyl)amino)-4-methoxyphenyl)acrylamide] was tested, and the IC50 (A431 cells EGFR WT) was 597 nM, the “A431:NCI-H1975 (ratio)” value (A431 cells EGFR WT) was 199 and the IC50 [1] was 3 nM. The IC50 (EGFR wild type) was 0.3 nM, the IC50 (EGFR d746-750/T790M) was 0.2 nM and the IC50 (EGFR T790M/L858R) was 0.1 nM.
With `C=CC(=O)Nc1cc(Nc2ncc(F)c(-c3c4n(c5c(OC)cccc35)CCOC4)n2)c(OC)cc1N(C)CCN(C)C` [Embodiment 35, N-(2-((2-(Dimethylamino)ethyl)(methyl)amino)-5-((5-fluoro-4-(6-methoxy-3,4-dihydro-1H-[1,4]oxazino[4,3-a]indol-10-yl)pyrimidin-2-yl)amino)-4-methoxyphenyl)acrylamide] the IC50 (A431 cells EGFR WT) was 971 nM, the “A431:NCI-H1975 (ratio)” value (A431 cells EGFR WT) was 9.1 and the IC50 [1] was 107 nM. For the same molecule, the IC50 (EGFR wild type) was 1.5 nM, the IC50 (EGFR d746-750/T790M) was 0.6 nM and the IC50 (EGFR T790M/L858R) was 1.2 nM.
For `C=CC(=O)Nc1cc(Nc2ncc(F)c(-c3c4n(c5ccccc35)C(C)(C)COC4)n2)c(OC)cc1N(C)CCN(C)C.CS(=O)(=O)O` [Embodiment 36, N-(5-((4-(4,4-Dimethyl-3,4-dihydro-1H-[1,4]oxazino[4,3-a]indol-10-yl)-5-fluoropyrimidin-2-yl)amino)-2-((2-(dimethylamino)ethyl)(methyl)amino)-4-methoxyphenyl)acrylamide methanesulfonate], the IC50 (A431 cells EGFR WT) was 438 nM, the “A431:NCI-H1975 (ratio)” value (A431 cells EGFR WT) was 2.5 and the IC50 [1] was 175 nM. For the same molecule, the IC50 (EGFR wild type) was 2.7 nM, the IC50 (EGFR d746-750/T790M) was 1.3 nM and the IC50 (EGFR T790M/L858R) was 1.3 nM.
For `C=CC(=O)Nc1cc(Nc2ncc(F)c(-c3c4n(c5ncccc35)CCOC4)n2)c(OC)cc1N(C)CCN(C)C` [Embodiment 39, N-(5-((4-(8,9-Dihydro-6H-pyrido[2,3]pyrrolo[4,5-α][1,4]oxazin-5-yl)-5-fluoropyrimidin-2-yl)amino)-2-((2-(dimethylamino)ethyl)(methyl)amino)-4-methoxyphenyl)acrylamide], the IC50 (A431 cells EGFR WT) was 1570 nM, the “A431:NCI-H1975 (ratio)” value (A431 cells EGFR WT) was 5.5 and the IC50 [1] was 288 nM. For the same molecule, the IC50 (EGFR wild type) was 5.3 nM, the IC50 (EGFR d746-750/T790M) was 0.6 nM and the IC50 (EGFR T790M/L858R) was 0.5 nM.
In the case of `C=CC(=O)Nc1cc(Nc2nccc(-c3cn4c5c(cccc35)OCC(C)(C)C4)n2)c(OC)cc1N(C)CCN(C)C` [Embodiment 41, N-(5-((4-(3,3-Dimethyl-3,4-dihydro-2H-[1,4]oxazepino[2,3,4-hi]indol-7-yl)pyrimidin-2-yl)amino)-2-((2-(dimethylamino)ethyl)(methyl)amino)-4-methoxyphenyl)acrylamide], the IC50 (A431 cells EGFR WT) is reported as 1720 nM, the “A431:NCI-H1975 (ratio)” value (A431 cells EGFR WT) is reported as 8.5 and the IC50 [1] is reported as 201 nM. It also gave an IC50 (EGFR wild type) of 4.9 nM, an IC50 (EGFR d746-750/T790M) of 2.6 nM and an IC50 (EGFR T790M/L858R) of 1.5 nM.
